Key:
[1] = Quality of castor oil containing emulsions with different steroids (pH, volume distribution, span, storage stability); assay type: physicochemical; details: for D(4:3) / pH / Span: emulsion of the steroid; for pH: heat sterilized; for Span: Malvern Mastersizer; for Storage 5 and 40°C: storage stability of emulsion
Procedure: In order to determinate the quality of the castor oil containing emulsions with different steroids, the following compositions were prepared:
The steroids were weighed in a 50 ml glass beaker. The castor oil (CO) or a mixture of castor oil and soybeans oil (CO+SBO) in a proportion of 70 : 30 was added to the beaker which was heated and the steroids were dissolved. The phospholipids were added to the oil phase and the agitation continued for another five minutes. This mixture was added to a heated aqueous phase containing water and glycerol and agitated for five minutes. The mixture was thereafter homogenized to an emulsion in a high pressure lab scale homogeniser at the technically highest possible pressure. The resultant emulsions were dispersed and sealed 20 ml glass vials which were heat sterilized. The emulsions were analysed with respect to the appearance, the shaking stability, pH and volume distribution. The span was analysed with a Malvern Mastersizer. The appearance of the droplets larger than 1µm and the average area on a relevant picture and the presence of precipitate were investigated with a microscope. The storage stability at 5 and 40°C was also studied.

[2] = Solubility of steroid and stability of the oil-in-water emulsions of Example 2; assay type: physicochemical; details: in Formulation 1 compared with Formulation 3
Procedure: For the biological experimentation oil-in-water emulsions were prepared from the following components:
pH was adjusted to 8.5 by NaOH and water for injection was added to 1 ml in all formulations.
Formulations 1 and 2 are emulsions according to the present invention, whereas Formulation 3 is a state of the art emulsion according to the European patent EP 233 849. The medium chain triglycerides in Formulation 2 are derived from coconut oil and will contain a fraction of triglycerides with fatty add residues having 6 to 12 carbon atoms. According to the present invention, the eltanolone was first mixed with castor oil or a mixture of castor oil and soybean oil and/or MCT. This leads to a substantial dissolution of the eltanolone. An emulsion was then prepared from the resulting oil-eltanolone mixture together with the additional indicated components. The resulting emulsions were stable and had average particle sizes of about 0.2 to 0.3 µ and could be sterilized by autoclaving without destabilisation. It is notable that in Formulations 1 and 2 according to the present invention half the amount of lipids is sufficient for obtaining a substantial dissolution of eltanolone when compared to Formulation 3. The solubility of eltanolone is for example about 5 times higher in Formulation 1 than in Formulation 3.

[3] = vehicle CO+SBO (castor oil and soybean oil 70 : 30)

Row | Structure (SMILES) | D(4:3) ([1]; vehicle CO (castor oil)) [µm] | pH ([1]; vehicle CO (castor oil)) | Span ([1]; vehicle CO (castor oil)) | D(4:3) ([1]; vehicle CO+SBO (70 : 30)) [µm] | Span ([1]; vehicle CO+SBO (70 : 30)) | pH [1, 3] | Storage 5 and 40°C ([1]; vehicle CO (castor oil)) | Storage 5 and 40°C ([1]; vehicle CO+SBO (70 : 30)) | solubility of eltanolone [2]
1 | CC(=O)[C@H]1CC[C@H]2[C@@H]3CC[C@@H]4C[C@@H](O)CC[C@]4(C)[C@H]3CC[C@]12C [Epipreganolone, 5β-pregnan-3β-ol-20-one] | 0.75 | 8.8 | 1.81 | 0.75 | 1.71 | 9.0 | >4 months | >4 months | –
2 | C[C@]12C=CC(=O)C=C1CC[C@@H]1[C@@H]2[C@@H](O)C[C@@]2(C)[C@H]1CC[C@]2(O)C(=O)CO [Prednisolone, 11β-11, 17, 21-trihydroxypregna-1,4-diene-3,20-dione, reference compound] | 0.81 | 8.9 | 1.28 | 0.70 | 1.26 | 8.9 | >2 months | >2 months | –
3 | C[C@]12CC[C@@H](O)C[C@@H]1CC[C@@H]1[C@@H]2CC[C@]2(C)C(=O)CC[C@@H]12 [Androsterone, 5α-androstan-3α-ol-17-one] | 0.83 | 8.9 | 1.79 | 0.51 | 1.50 | 9.2 | >1 month months | >1 month months | –
4 | CC(=O)[C@H]1CC[C@H]2[C@@H]3CC=C4C[C@@H](OS(=O)(=O)O)CC[C@]4(C)[C@H]3CC[C@]12C [Pregnenolone sulphate, 5-pregnen-3β-ol-20-one-sulphate] | 0.97 | 8.8 | 1.76 | 0.50 | 1.56 | 8.8 | >1 month months | >1 month months | –
5 | C[C@]12CCC(=O)C=C1CC[C@@H]1[C@@H]2[C@@H](O)C[C@@]2(C)[C@H]1CC[C@]2(O)C(=O)CO [Hydrocortisone, 11β,17α,21-trihydroxypregna-4-ene-3,20-dione, reference compound] | 0.76 | 8.7 | 1.43 | 0.56 | 1.51 | 8.8 | – | – | –
6 | CC(=O)[C@H]1CC[C@H]2[C@@H]3CC[C@H]4C[C@H](O)CC[C@]4(C)[C@H]3CC[C@]12C [Allo pregnanolone, 5α-pregnan-3β-ol-20-one] | 0.69 | 8.8 | 1.70 | 0.53 | 1.58 | 9.0 | >3 months | >3 months | –
7 | C[C@]12CC[C@@H](O)C[C@H]1CC[C@@H]1[C@@H]2CC[C@]2(C)[C@@H](C(=O)CO)CC[C@@H]12 [Tetrahydrodeoxycorticosterone, 5β-pregnan-3α,21-diol-20-one] | 0.86 | 9.0 | 1.80 | 0.58 | 1.52 | 9.1 | >1 month months | >1 month months | –
8 | CC(=O)[C@H]1CC[C@H]2[C@@H]3CC[C@@H]4C[C@H](O)CC[C@]4(C)[C@H]3CC[C@]12C [eltanolone, 5β-pregnan-3α-ol-20-one] | – | – | – | – | – | – | – | – | about 5 times higher
